Data published in patent publication US20240174637A1, “DEGRADERS OF GRK2 AND USES THEREOF” (Sonata Therapeutics, Inc., priority 2021, published 2024).
Structures can show the parent of a compound that is named as a salt. Where two headings read alike, the source gives them in different places.

Columns and labels:
[1] = target: T1, GRK2 (Homo sapiens, UniProt P25098); assay: Second ADPGlo GRK2 Inhibition Assay (Example 3); format: biochemical; details: ADP-Glo, 20 μM ATP; read-out: Second ADPGlo Enzymatic GRK2 Assay: IC50 (nM) (Example 3)
T1 sequence (P25098 1-689): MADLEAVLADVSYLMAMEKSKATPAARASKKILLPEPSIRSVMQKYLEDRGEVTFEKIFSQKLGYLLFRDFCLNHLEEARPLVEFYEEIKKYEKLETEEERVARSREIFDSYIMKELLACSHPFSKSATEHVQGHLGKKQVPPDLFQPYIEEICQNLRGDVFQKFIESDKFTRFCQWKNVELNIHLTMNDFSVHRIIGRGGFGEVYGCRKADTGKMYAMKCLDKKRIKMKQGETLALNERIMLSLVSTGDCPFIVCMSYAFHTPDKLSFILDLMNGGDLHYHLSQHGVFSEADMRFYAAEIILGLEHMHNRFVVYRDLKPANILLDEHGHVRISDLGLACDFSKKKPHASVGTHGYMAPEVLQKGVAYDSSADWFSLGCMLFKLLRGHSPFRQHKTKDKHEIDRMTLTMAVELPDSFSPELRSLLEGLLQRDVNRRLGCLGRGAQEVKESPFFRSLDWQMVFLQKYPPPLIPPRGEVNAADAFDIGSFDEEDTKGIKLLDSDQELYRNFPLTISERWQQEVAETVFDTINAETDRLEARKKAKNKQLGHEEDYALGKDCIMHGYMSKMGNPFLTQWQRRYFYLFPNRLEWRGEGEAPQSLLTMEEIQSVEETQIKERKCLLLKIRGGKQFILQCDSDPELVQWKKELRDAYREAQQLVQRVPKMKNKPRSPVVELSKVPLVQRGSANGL
Description: Assay: GRK2 (2 nM) was incubated with ATP (20 μM) and GRKtide (1.2 mg/mL) in 11 μL of assay buffer (see above) for 180 min at room temperature. Compounds were dissolved in 100% DMSO, serially diluted 3.16-fold from 100 μM with 10 concentration points and transferred as 100× into assay plate (final compounds concentration in the reaction plate from 1 μM).
Materials: GRK2 was purchased from SignalChem (Cat #A14-10G, Lot #X645-3). Substrate GRKtide was from SignalChem (Cat #G46-58, Lot #R339-6). ADP-Glo Kinase Assay from Promega (Cat #V9102). Assay buffer consisted of 20 mM HEPES (pH7.5), 20 mM MgCl2, 0.01% Tween-20, 0.05 mM DDT. 384-well white plates were from Corning (Cat #4513).
HTS protocol: Add 5.5 μL of 2× substrate-enzyme mix into all columns except of 1-2 and 24 of reaction plate. Spin 15 seconds at 200 g. Transfer 1 ul of compounds from the plate with serial dilutions (384 well plate with 22 uL of compound in columns 3-22/DMSO solution 1-2,23-24) to Dilution plate (384 well plate with 49 uL of buffer with 2×40 μM ATP). After mixing transfer 5.5 ul from Dilution plate to Reaction plate (to 5.5 μL of 2× substrate-enzyme mix). Spin 15 seconds at 200 g and incubate for 180 min at room temperature with sealing. Add 3 μL ADP-Glo reagent to all the wells. Spin 15 seconds at 200 g and incubate for 40 min at room temperature. Add 6 μL Detection solution to all the wells. Incubate for 30 min at room temperature. Read plate using ClarioStar Plus (BMG).
Data Analysis: Data were analyzed in GraphPad Prism 5.0.2. Each HTS plate contains compounds in columns 3-22, controls (enzyme, no compound) in column 23, and blanks (no enzyme) in columns 2. HTS percent inhibition was calculated for each compound from the signal in luminescence units and the mean of the plate controls and the mean of the plate blanks using the following equation: % Inhibition=100*(1-(signal-blank mean)/(control mean-blank mean)).

[2] = target: T1, GRK2; assay: GRK2 Degradation Assay and Western Blot in PAXF1657 cells; format: cell-based; parameters: endogenous in cells; host or cells: PAXF1657; details: for inhibition at 0.3 µM: Conc 0.3 uM
How it was run: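 GRK2 degradation judged by immunoblot: NP40 lysates separated by SDS-PAGE and probed for GRK2 and β-actin, with HRP/ECL detection. Lysates came from PAXF1657 cells exposed to 0–10 μM compound for 6–24 h after reaching 70% confluency.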

[3] = tested on: PAXF1657 EV; assay: 7-day cellular proliferation assay (CellTiter-Glo), PAXF1657 EV; format: cell-based
How it was run: (§1)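 Isogenic PAXF1657 pairs differing in GRK2 level (stable cDNA overexpression or CRISPR knockout, each with matched control) are seeded and allowed to attach overnight. Inhibitors span 30 μM-0.0002 μM in 0.3% DMSO for 3 plus 4 days at 37° C, 5% CO2, with a medium change between.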

[4] = tested on: PAXF1657 KO Clone #4; assay: 7-day cellular proliferation assay (CellTiter-Glo), PAXF1657 KO Clone #4; format: cell-based
How it was run: as §1

[5] = target: T1, GRK2; assay: GRK2 Inhibition Assay (TR-FRET, Example 1); format: biochemical
How it was run: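 TR-FRET phosphorylation readout: Eu anti-TopoIIα antibody with EDTA added after a 90 min RT kinase reaction of 1 nM GRK2, 7 μM ATP and 50 nM ULight-TopoIIα. Compounds were pre-incubated with enzyme 30 min at room temperature beforehand.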

[6] = read-out: Degradation Assay - 3 point: Degradation (%)
[7] = Conc 1 uM, read-out: Degradation Assay - 3 point: Degradation (%)
[8] = Conc 3 uM, read-out: Degradation Assay - 3 point: Degradation (%)
[9] = proliferation, read-out: GeoMean IC50 (UM) PAXF1657 EV
[10] = proliferation, read-out: GeoMean IC50 (uM) PAXF1657 KO Clone #4
[11] = Table 4, Example 1 assay, read-out: Enzymatic GRK2 IC50: Av IC50 GRK2

Structure (SMILES) | IC50 [1] [nM] | inhibition at 0.3 µM [2, 6] [%] | inhibition at 1 µM [2, 7] [%] | inhibition at 3 µM [2, 8] [%] | IC50 [3, 9] [µM] | IC50 [4, 10] [µM] | IC50 [5, 11] [nM] | other results
Cn1c(CNc2cccc(C(=O)NCc3cccc(OCCCC(=O)Nc4cccc5c4CN(C4CCC(=O)NC4=O)C5=O)c3)c2)nnc1-c1ccncn1 (centres unmarked) [Compound D70] | < 100 |  |  |  |  |  |  | 
Cn1c(CNc2cccc(C(=O)NCc3cccc(OCCCCCCC(=O)Nc4cccc5c4CN(C4CCC(=O)NC4=O)C5=O)c3)c2)nnc1-c1ccncn1 (centres unmarked) [Compound D69] | < 100 |  |  |  |  |  |  | 
Cc1ncsc1-c1ccc(CNC(=O)[C@@H]2C[C@@H](O)CN2C(=O)[C@@H](NC(=O)CCCCCOCCCCCOCCCCCCOc2cccc(CNC(=O)c3cccc(NCc4nnc(-c5ccncn5)n4C)c3)c2)C(C)(C)C)cc1 [Compound D98] | < 100 |  |  |  |  |  |  | 
COc1cc(OCC(=O)NCCOCCOCCNC(=O)COCC(=O)N[C@H](C(=O)N2C[C@H](O)C[C@H]2C(=O)NCc2ccc(-c3scnc3C)cc2)C(C)(C)C)ccc1CNC(=O)c1cccc(NCc2nnc(-c3ccncn3)n2C)c1 [Compound D94] | 100 to 1000 |  |  |  |  |  |  | 
COc1cc(OCCNC(=O)CCCCCC(=O)N[C@H](C(=O)C2C[C@H](O)C[C@H]2C(=O)NCc2ccc(-c3scnc3C)cc2)C(C)(C)C)ccc1CNC(=O)c1cccc(NCc2nnc(-c3ccncn3)n2C)c1 (some centres unmarked) [Compound D93] | < 100 |  |  |  |  |  |  | 
C[C@@H](NC(=O)c1cccc(NCc2nnc(-c3ccncn3)n2C)c1)c1ccc(OCCN2CCN(c3ccc4c(c3)CN(C3CCC(=O)NC3=O)C4=O)CC2)cc1 (stereo partly drawn) [Compound D174, N-((1R)-1-(4-(2-(4-(2-(2,6-dioxopiperidin-3-yl)-1-oxoisoindolin-5-yl)piperazin-1-yl)ethoxy)phenyl)ethyl)-3-((4-methyl-5-(pyrimidin-4-yl)-4H-1,2,4-triazol-3-yl)methylamino)benzamide hydrochloride] |  | 63.6 | 50.2 | 28.3 | < 0.000458 | > 30 | 12 | 
CN[C@@H](C)C(=O)N[C@H](C(=O)N1CCC[C@H]1c1nc(C(=O)c2cccc(OCc3cn(CCCCCCOc4cccc(CNC(=O)c5cccc(NCc6nnc(-c7ccncn7)n6C)c5)c4)nn3)c2)cs1)C1CCCCC1 [Compound D102, N-(3-((6-(4-((3-(2-((S)-1-((S)-2-cyclohexyl-2-((S)-2-(methylamino)propanamido)acetyl)pyrrolidin-2-yl)thiazole-4-carbonyl)phenoxy)methyl)-1H-1,2,3-triazol-1-yl)hexyl)oxy)benzyl)-3-(((4-methyl-5-(pyrimidin-4-yl)-4H-1,2,4-triazol-3-yl)methyl)amino)benzamide] |  |  |  |  |  |  |  | inhibition at 1 µM ([2]; 1 uM, PAXF1657 EV, 24 hrs, read-out: % GRK2 degradation at 1 uM in PAXF1657 EV (24 hrs)): 70%; inhibition at 3 µM ([2]; 3 uM, PAXF1657 EV, 24 hrs, read-out: % GRK2 degradation at 3 uM in PAXF1657 EV (24 hrs)): 73%; IC50 ([3]; 168 h, 7-day, read-out: 7-day proliferation assay: IC50 GeoMean (uM) [Cell Line: PAXF1657 EV]): < 1 µM; IC50 ([4]; 168 h, 7-day, read-out: 7-day proliferation assay: IC50 GeoMean (uM) [Cell Line: PAXF1657 KO Clone #4]): 1 to 10 µM; IC50 ([5]; TR-FRET, 7 μM ATP, read-out: Enzymatic GRK2 Assay: IC50 (nM) (Example 1)): < 100 nM
C[C@@H](NC(=O)c1cccc(NCc2nnc(-c3ccncn3)n2C)c1)c1cccc(OCCCCN2CCN(c3ccc4c(c3)CN(C3CCC(=O)NC3=O)C4=O)CC2)c1 (stereo partly drawn) [Compound D129, N-((1R)-1-(3-(4-(4-(2-(2,6-dioxopiperidin-3-yl)-1-oxoisoindolin-5-yl)piperazin-1-yl)butoxy)phenyl)ethyl)-3-((4-methyl-5-(pyrimidin-4-yl)-4H-1,2,4-triazol-3-yl)methylamino)benzamide] |  | 79.8 | 77.5 | 70.6 | 0.1 | > 30 | 27.9 | DC50 ([2]; PAXF1657, 24 h, read-out: Degradation Assay - Full Dose Response: IC50 (uM) [cell line: PAXF1657, time point: 24 h]): 0.08 µM
C[C@@H](NC(=O)c1cccc(NCc2nnc(-c3ccncn3)n2C)c1)c1ccc(OCCCN2CCN(c3ccc4c(c3)CN(C3CCC(=O)NC3=O)C4=O)CC2)cc1 (some centres unmarked) [Compound D173] |  | 52.5 | 48.5 | 14.7 | 0.03 | 0.26 | 18.6 | 
C[C@@H](NC(=O)c1cccc(NCc2nnc(-c3ccncn3)n2C)c1)c1ccc(OCCCCCCOCCOCCOCCCC(=O)Nc2cccc3c2CN(C2CCC(=O)NC2=O)C3=O)cc1 (stereo partly drawn) [Compound D127, N-((1R)-1-(4-(6-(2-(2-(4-(2-(2,6-dioxopiperidin-3-yl)-1-oxoisoindolin-4-ylamino)-4-oxobutoxy)ethoxy)ethoxy)hexyloxy)phenyl)ethyl)-3-((4-methyl-5-(pyrimidin-4-yl)-4H-1,2,4-triazol-3-yl)methylamino)benzamide] |  | 81.4 | 82.1 | 78.5 | 0.1 | > 30 | 2.2 | 
C[C@@H](NC(=O)c1cccc(NCc2nnc(-c3ccncn3)n2C)c1)c1cccc(OCCCCCCOCCOCCOCCCC(=O)N2CCN(c3ccc4c(c3)CN(C3CCC(=O)NC3=O)C4=O)CC2)c1 (stereo partly drawn) [Compound D179, N-((1R)-1-(3-((6-(2-(2-(4-(4-(2-(2,6-dioxopiperidin-3-yl)-1-oxoisoindolin-5-yl)piperazin-1-yl)-4-oxobutoxy)ethoxy)ethoxy)hexyl)oxy)phenyl)ethyl)-3-(((4-methyl-5-(pyrimidin-4-yl)-4H-1,2,4-triazol-3-yl)methyl)amino)benzamide] |  | 58 | 82 | 88 | 0.14 | > 30 | 6.36 | 
C[C@@H](NC(=O)c1cccc(NCc2nnc(-c3ccncn3)n2C)c1)c1cccc(C(=O)N2CC(CN3CCN(c4ccc5c(c4)CN(C4CCC(=O)NC4=O)C5=O)CC3)C2)c1 (stereo partly drawn) [Compound D121, N-((1R)-1-(3-(3-((4-(2-(2,6-dioxopiperidin-3-yl)-1-oxoisoindolin-5-yl)piperazin-1-yl)methyl)azetidine-1-carbonyl)phenyl)ethyl)-3-((4-methyl-5-(pyrimidin-4-yl)-4H-1,2,4-triazol-3-yl)methylamino)benzamide hydrochloride] |  | 7.97 | 24 | 53.8 | 11.4 | > 30 | 44.7 | 
